Reference: the NIST ThermoML archive (doi:10.1021/je1007197)
“And” between values parts separate entries of the source, which are not always exact repeats. Equal entries are not always repeated. ± gives the expanded uncertainty stated by the source.

Settings: Liquid, Hot wire method

CCCCOCCO [2-butoxyethan-1-ol]
thermal conductivity
Settings	304.15 K	321.15 K	338.15 K
100 kPa	0.1529 ± 0.001 W/m/K and 0.1533 ± 0.001 W/m/K	0.1497 ± 0.0009 W/m/K and 0.1496 ± 0.0009 W/m/K	0.1461 ± 0.0009 W/m/K and 0.1463 ± 0.0009 W/m/K
16400 kPa	0.1579 ± 0.001 W/m/K	0.1548 ± 0.001 W/m/K	0.1518 ± 0.001 W/m/K
27300 kPa	0.1612 ± 0.001 W/m/K	0.1585 ± 0.001 W/m/K	0.1555 ± 0.001 W/m/K
41800 kPa	0.1646 ± 0.001 W/m/K	0.1628 ± 0.001 W/m/K	0.1601 ± 0.001 W/m/K
56100 kPa	0.1689 ± 0.0011 W/m/K	0.1665 ± 0.001 W/m/K	0.164 ± 0.001 W/m/K
70200 kPa	0.1722 ± 0.0011 W/m/K	0.1701 ± 0.0011 W/m/K	0.1677 ± 0.001 W/m/K
79000 kPa	0.174 ± 0.0011 W/m/K	–	–
83500 kPa	0.1749 ± 0.0011 W/m/K	–	–
84200 kPa	–	0.1739 ± 0.0011 W/m/K	0.1717 ± 0.0011 W/m/K
98200 kPa	0.1785 ± 0.0011 W/m/K	0.177 ± 0.0011 W/m/K	0.1751 ± 0.0011 W/m/K
108700 kPa	–	–	0.1775 ± 0.0011 W/m/K
112200 kPa	0.182 ± 0.0011 W/m/K	0.18 ± 0.0011 W/m/K	–
123400 kPa	–	–	0.1807 ± 0.0011 W/m/K
124100 kPa	0.1836 ± 0.0011 W/m/K	–	–
126200 kPa	–	0.183 ± 0.0011 W/m/K	–
134900 kPa	–	0.1851 ± 0.0011 W/m/K	–
140100 kPa	0.187 ± 0.0012 W/m/K	–	0.1844 ± 0.0011 W/m/K
149200 kPa	0.1885 ± 0.0012 W/m/K	–	–
150600 kPa	–	0.1879 ± 0.0012 W/m/K	–
